Laboratory results from patent US6509371B1, “Compositions containing Bergamottin for increasing the oral bioavailability of pharmaceutical agents” (Warner-Lambert Company, priority 1997, dated 2003).
Like-named read-outs stand apart in the source and are kept apart here.

Key:
P450 3A4 [1] = target: T1, P450 3A4 (Homo sapiens, UniProt P08684); assay: BG-mediated inactivation of P450 3A4 in a reconstituted system, testosterone 6β-hydroxylation activity; settings: reconstituted system
Target sequence in this assay (P08684 with tags, fused parts or gaps): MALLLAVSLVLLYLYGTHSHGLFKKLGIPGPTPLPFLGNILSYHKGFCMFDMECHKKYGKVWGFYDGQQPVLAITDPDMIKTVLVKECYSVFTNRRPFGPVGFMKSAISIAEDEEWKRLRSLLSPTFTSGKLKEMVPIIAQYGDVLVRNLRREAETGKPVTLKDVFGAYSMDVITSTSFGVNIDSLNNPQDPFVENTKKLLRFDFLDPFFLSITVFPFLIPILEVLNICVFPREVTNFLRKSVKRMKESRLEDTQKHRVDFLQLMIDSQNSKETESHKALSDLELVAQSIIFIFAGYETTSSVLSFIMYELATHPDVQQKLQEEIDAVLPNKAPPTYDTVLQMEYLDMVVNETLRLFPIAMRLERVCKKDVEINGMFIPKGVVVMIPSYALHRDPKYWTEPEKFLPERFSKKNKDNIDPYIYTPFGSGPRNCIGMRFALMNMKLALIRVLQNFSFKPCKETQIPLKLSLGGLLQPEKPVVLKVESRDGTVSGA

[2] = cited from earlier work
P450 3A4 [3] = target: T1, P450 3A4; settings: in vivo; cited from earlier work
Target sequence in this assay (P08684 whole entry): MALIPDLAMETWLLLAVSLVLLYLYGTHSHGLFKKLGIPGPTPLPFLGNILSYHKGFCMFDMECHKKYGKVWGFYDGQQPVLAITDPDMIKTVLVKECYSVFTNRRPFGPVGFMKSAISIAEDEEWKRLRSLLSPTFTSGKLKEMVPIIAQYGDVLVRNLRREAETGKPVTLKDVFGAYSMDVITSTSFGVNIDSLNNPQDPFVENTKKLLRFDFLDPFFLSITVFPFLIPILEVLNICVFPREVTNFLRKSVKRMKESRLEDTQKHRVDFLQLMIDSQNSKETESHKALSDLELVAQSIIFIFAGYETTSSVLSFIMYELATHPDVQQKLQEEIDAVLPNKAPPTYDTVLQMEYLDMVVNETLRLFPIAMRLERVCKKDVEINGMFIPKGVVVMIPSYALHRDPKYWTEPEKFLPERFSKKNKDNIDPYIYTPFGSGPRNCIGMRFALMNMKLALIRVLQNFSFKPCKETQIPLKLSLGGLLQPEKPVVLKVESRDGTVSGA

P450 3A4 [4] = target: T1, P450 3A4; settings: other potent inactivators of P450 3A4, literature; cited from earlier work
Target sequence in this assay (P08684 whole entry): as above

In the case of `CC(=CCOc1c2ccoc2cc2oc(=O)ccc12)CCC(O)C(C)(C)O` (stereo not drawn) [6′,7′-dihydroxybergamottin], the “Kinactivation (maximal rate constant of inactivation)” value (P450 3A4 [1]) was 0.16 min⁻¹.
In the case of `COc1ccc(CCN2CCC(Nc3nc4ccccc4n3Cc3ccc(F)cc3)CC2)cc1` [Astemizole], the “Oral Bioavailability” value ([2]; oral) is given as “Low” and the “Fraction Metabolized” value (P450 3A4 [3]) is given as greater than 90%.
For `CC[C@H]1OC(=O)[C@H](C)[C@@H](O[C@H]2C[C@@](C)(OC)[C@@H](O)[C@H](C)O2)[C@H](C)[C@@H](O[C@@H]2O[C@H](C)C[C@H](N(C)C)[C@H]2O)[C@](C)(O)C[C@@H](C)CN(C)[C@H](C)[C@@H](O)[C@]1(C)O` [Azithromycin], the “Oral Bioavailability” value ([2]; oral) is given as 35-45%.
In the case of `NC(=O)N1c2ccccc2C=Cc2ccccc21` [Carbamazepine], the “Oral Bioavailability” value ([2]; oral) is listed as greater than 70% and the “Fraction Metabolized” value (P450 3A4 [3]) is listed as greater than 90%.
For `COc1cc(N)c(Cl)cc1C(=O)NC1CCN(CCCOc2ccc(F)cc2)CC1OC` (stereo not drawn) [Cisapride], the “Oral Bioavailability” value ([2]; oral) is given as 35-40%.
For `CC[C@H]1OC(=O)[C@H](C)[C@@H](O[C@H]2C[C@@](C)(OC)[C@@H](O)[C@H](C)O2)[C@H](C)[C@@H](O[C@@H]2O[C@H](C)C[C@H](N(C)C)[C@H]2O)[C@](C)(OC)C[C@@H](C)C(=O)[C@H](C)[C@@H](O)[C@]1(C)O` [Clarithromycin], the “Oral Bioavailability” value ([2]; oral) is listed as 50-55% and the “Fraction Metabolized” value (P450 3A4 [3]) is listed as greater than 70%.
In the case of `CN1C[C@H](C(=O)N[C@]2(C)O[C@@]3(O)[C@@H]4CCCN4C(=O)[C@H](Cc4ccccc4)N3C2=O)C=C2c3cccc4[nH]cc(c34)C[C@H]21` [Ergotamine], the “Oral Bioavailability” value ([2]; oral) is listed as less than 1% and the “Fraction Metabolized” value (P450 3A4 [3]) is listed as greater than 90%.
In the case of `CC[C@H]1OC(=O)[C@H](C)[C@@H](O[C@H]2C[C@@](C)(OC)[C@@H](O)[C@H](C)O2)[C@H](C)[C@@H](O[C@@H]2O[C@H](C)C[C@H](N(C)C)[C@H]2O)[C@](C)(O)C[C@@H](C)C(=O)[C@H](C)[C@@H](O)[C@]1(C)O` [Erythromycin], the “Oral Bioavailability” value ([2]; oral) is given as 30-65%.
In the case of `COc1cc([C@@H]2c3cc4c(cc3[C@@H](O[C@@H]3O[C@@H]5CO[C@@H](C)O[C@H]5[C@H](O)[C@H]3O)[C@H]3COC(=O)[C@H]23)OCO4)cc(OC)c1O` [Etoposide], the “Oral Bioavailability” value ([2]; oral) is listed as 35-70%.
In the case of `CCOC(=O)C1=C(C)NC(C)=C(C(=O)OC)C1c1cccc(Cl)c1Cl` (stereo not drawn) [Felodipine], the “Oral Bioavailability” value ([2]; oral) is listed as 15-25%.
In the case of `CC(C)n1c(/C=C/C(O)CC(O)CC(=O)O)c(-c2ccc(F)cc2)c2ccccc21` (stereo not drawn) [Fluvastatin], the “Oral Bioavailability” value ([2]; oral) is listed as 50-9% and the “Fraction Metabolized” value (P450 3A4 [3]) is listed as “˜90%”.
For `COC(=O)C1=C(C)NC(C)=C(C(=O)OC(C)C)C1c1cccc2nonc12` (stereo not drawn) [Isradipine], the “Oral Bioavailability” value ([2]; oral) is listed as 15-25% and the “Fraction Metabolized” value (P450 3A4 [3]) is listed as greater than 90%.
In the case of `CCC(C)n1ncn(-c2ccc(N3CCN(c4ccc(OCC5COC(Cn6cncn6)(c6ccc(Cl)cc6Cl)O5)cc4)CC3)cc2)c1=O` (stereo not drawn) [Itraconazole], the “Oral Bioavailability” value ([2]; oral) is listed as 44-55% and the “Fraction Metabolized” value (P450 3A4 [3]) is listed as greater than 90%.
For `Cc1ncc2n1-c1ccc(Cl)cc1C(c1ccccc1F)=NC2` [Midazolam], the “Oral Bioavailability” value ([2]; in vivo, po) is given as 40-50% and the “Fraction Metabolized” value (P450 3A4 [3]) is given as greater than 90%.
In the case of `COC(=O)C1=C(C)NC(C)=C(C(=O)OCCN(C)Cc2ccccc2)C1c1cccc([N+](=O)[O-])c1` (stereo not drawn) [Nicardipine], the “Oral Bioavailability” value ([2]; oral) is given as 20-30% and the “Fraction Metabolized” value (P450 3A4 [3]) is given as greater than 90%.
For `COCCOC(=O)C1=C(C)NC(C)=C(C(=O)OC(C)C)C1c1cccc([N+](=O)[O-])c1` (stereo not drawn) [Nimodipine], the “Oral Bioavailability” value ([2]; oral) is listed as 15-10%.
For `COC(=O)C1=C(C)NC(C)=C(C(=O)OCC(C)C)C1c1ccccc1[N+](=O)[O-]` (stereo not drawn) [Nisoldipine], the “Oral Bioavailability” value ([2]; oral) is given as “˜5%”.
For `CCOC(=O)C1=C(C)NC(C)=C(C(=O)OC)C1c1cccc([N+](=O)[O-])c1` (stereo not drawn) [Nitrendipine], the “Oral Bioavailability” value ([2]; oral) is given as 16-6% and the “Fraction Metabolized” value (P450 3A4 [3]) is given as greater than 90%.
In the case of `O=c1[nH]c2ccccc2n1C1CCN(CCCC(c2ccc(F)cc2)c2ccc(F)cc2)CC1` [Pimozide], the “Fraction Metabolized” value (P450 3A4 [3]) is given as greater than 90%.
For `CC[C@H](C)C(=O)O[C@H]1C[C@H](O)C=C2C=C[C@H](C)[C@H](CC[C@@H](O)C[C@@H](O)CC(=O)O)[C@H]21` [Pravastatin], the “Oral Bioavailability” value ([2]; oral) is listed as 25-10% and the “Fraction Metabolized” value (P450 3A4 [3]) is listed as greater than 50%.
For `CO[C@H]1/C=C/O[C@@]2(C)Oc3c(C)c(O)c4c(c3C2=O)C2=NC3(CCN(CC(C)C)CC3)NC2=C(NC(=O)/C(C)=C\C=C\[C@H](C)[C@H](O)[C@@H](C)[C@@H](O)[C@@H](C)[C@H](OC(C)=O)[C@@H]1C)C4=O` [Rifabutin], the “Oral Bioavailability” value ([2]; oral) is listed as 20-12% and the “Fraction Metabolized” value (P450 3A4 [3]) is listed as greater than 90%.
In the case of `CC(C)(C)NC(=O)[C@@H]1C[C@@H]2CCCC[C@@H]2CN1C[C@@H](O)[C@H](Cc1ccccc1)NC(=O)[C@H](CC(N)=O)NC(=O)c1ccc2ccccc2n1` [Saquinavir], the “Fraction Metabolized” value (P450 3A4 [3]) is listed as greater than 90%.
For `CN[C@H]1CC[C@@H](c2ccc(Cl)c(Cl)c2)c2ccccc21` [Sertraline], the “Fraction Metabolized” value (P450 3A4 [3]) is given as greater than 90%.
For `CO[C@H]1C[C@@H]2CC[C@@H](C)[C@@](O)(O2)C(=O)C(=O)N2CCCC[C@H]2C(=O)O[C@H]([C@H](C)C[C@@H]2CC[C@@H](O)[C@H](OC)C2)CC(=O)[C@H](C)/C=C(\C)[C@@H](O)[C@@H](OC)C(=O)[C@H](C)C[C@H](C)/C=C/C=C/C=C/1C` [Sirolimus(rapamycin), Sirolimus], the “Oral Bioavailability” value ([2]; oral) is listed as 20-10% and the “Fraction Metabolized” value (P450 3A4 [3]) is listed as greater than 90%.
For `C=CC[C@@H]1/C=C(\C)C[C@H](C)C[C@H](OC)[C@H]2O[C@@](O)(C(=O)C(=O)N3CCCC[C@H]3C(=O)O[C@H](/C(C)=C/[C@@H]3CC[C@@H](O)[C@H](OC)C3)[C@H](C)[C@@H](O)CC1=O)[C@H](C)C[C@@H]2OC` [Tacrolimus (FK506), Tacrolimus], the “Oral Bioavailability” value ([2]; oral) is given as 20-15% and the “Fraction Metabolized” value (P450 3A4 [3]) is given as greater than 90%.
In the case of `C[C@]12CC[C@H]3[C@@H](CCC4=CC(=O)CC[C@@]43C)[C@@H]1CC[C@@H]2O` [Testosterone], the “Oral Bioavailability” value ([2]; oral) is listed as “Poor” and the “Fraction Metabolized” value (P450 3A4 [3]) is listed as greater than 90%.
For `Cc1nnc2n1-c1ccc(Cl)cc1C(c1ccccc1Cl)=NC2` [Triazolam], the “Oral Bioavailability” value ([2]; oral) is listed as 45-70% and the “Fraction Metabolized” value (P450 3A4 [3]) is listed as greater than 90%.
In the case of `CC[C@]1(O)C[C@@H]2CN(CCc3c([nH]c4ccccc34)[C@@](C(=O)OC)(c3cc4c(cc3OC)N(C)[C@H]3[C@@](O)(C(=O)OC)[C@H](OC(C)=O)[C@]5(CC)C=CCN6CC[C@]43[C@@H]65)C2)C1` [Vinblastine], the “Oral Bioavailability” value ([2]; oral) is listed as “Poor” and the “Fraction Metabolized” value (P450 3A4 [3]) is listed as greater than 50%.
In the case of `CC[C@]1(O)C[C@H]2CN(CCc3c([nH]c4ccccc34)[C@@](C(=O)OC)(c3cc4c(cc3OC)N(C=O)[C@H]3[C@@](O)(C(=O)OC)[C@H](OC(C)=O)[C@]5(CC)C=CCN6CC[C@]43[C@@H]65)C2)C1` [Vincristine], the “Oral Bioavailability” value ([2]; oral) is listed as “Poor” and the “Fraction Metabolized” value (P450 3A4 [3]) is listed as greater than 50%.
For `C#C[C@]1(O)C=C[C@H]2[C@@H]3CCC4=CC(=O)CC[C@@H]4[C@H]3CC[C@@]21CC` [gestodene], the Kinactivation (P450 3A4 [4]) is listed as 0.4 min⁻¹.
